# Reference: US10179914B2, “CDC25A inhibitor for the treatment of drug resistant cancer or for the prevention of tumor relapse” (INSERM (INSTITUT NATIONAL DE LA SANTÉ ET DE LA RECHERCHE …, priority 2014, dated 2019)
# What was measured:
# HCT-116 tumor spheroids = conditions: by induction of p21 and apoptosis; cited from earlier work
# [1] = with these regimens; cited from earlier work
# Cdc25A = Cdc25A (Homo sapiens, UniProt P30304); conditions: cited from earlier work
# [2] = tested on: FLT3-ITD positive primary AML cells; experiment: Clonogenic assay, FLT3-ITD positive primary AML cells; assay type: cell-based, human; conditions: 100 and 200 nM, day 7, semi-solid 5637 conditioned medium
# Experimental: (c) Primary cells from patients were cultured in semi-solid medium to estimate their clonogenic potential as described in the Methods section, in the presence or the absence of IRC-083864 (100 and 200 nM). 6 FLT3-ITD positive (upper panel) and 4 FLT3-wild type (lower panel) AML primary samples were used for these experiments. Leukemic colonies were scored under an inverted microscope at day 7.
# Patient samples. Patient AML samples were obtained after informed consent in accordance with the Declaration of Helsinki and stored at the HIMIP collection. According to the French law, HIMIP collection has been declared to the Ministry of Higher Education and Research (DC 2008-307 collection 1) and obtained a transfer agreement (AC 2008-129) after approbation by ethical committees (Comité de Protection des Personnes Sud-Ouest et Outremer II and APHP ethical committee). Clinical and biological annotations of the samples have been declared to the CNIL (Comité National Informatique et Libertés i.e. Data processing and Liberties National Committee). Frozen cells were thawed in IMDM medium with 20% FBS and immediately processed for treatment. All patients were diagnosed at the Department of Hematology of Toulouse University Hospital.
# Clonogenic assay. […] Leukemic colonies were then scored under an inverted microscope.
# [3] = tested on: human cell lines (tumor cell proliferation); conditions: compared with BN82685; cited from earlier work
# [4] = tested on: FLT3-ITD primary AML cells from patients; experiment: Differentiation of FLT3-ITD primary AML samples; assay type: cell-based, human
# Experimental: (a) 4 primary samples from patients carrying the FLT3-ITD mutation (ITD #1-4) were treated for 6 days with IRC-083864 (100 nM), and the expression of CD14 (upper panel) and CD15 (lower panel) was followed by flow cytometry analysis. (b) Quantification (mean±SEM, n=4) of CD14 and CD15 expression in response to IRC-083864. (c) The morphology of primary cells from patients used in (a) was analyzed by microscopy after 6 days and 9 days of treatment with IRC-083864. Original magnification ×100.
# Patient samples. Patient AML samples were obtained after informed consent in accordance with the Declaration of Helsinki and stored at the HIMIP collection. According to the French law, HIMIP collection has been declared to the Ministry of Higher Education and Research (DC 2008-307 collection 1) and obtained a transfer agreement (AC 2008-129) after approbation by ethical committees (Comité de Protection des Personnes Sud-Ouest et Outremer II and APHP ethical committee). […]
# Flow cytometry. Apoptotic cells were detected with Annexin V-FITC detection kit from BD Pharmingen (San Diego, Calif., USA) according to the manufacturer instructions. […] Data were collected on a LSRII or a LSRFortessa cytometer (BD Biosciences), and analyzed with FlowJo software. […]
# [5] = tested on: HL-60 cells (FLT3 wild type); experiment: Cell proliferation, trypan blue counting, HL-60; assay type: cell-based, human
# Experimental: (a) MV4-11 and MOLM-14 FLT3-ITD positive cells, KG1, HL-60 and TF-1 FLT3 wild type cells, and K562 FLT3 negative cells were cultured in the presence of the CDC25 inhibitor IRC-083864 (200 nM). Cells were harvested each day and counted after trypan blue coloration. The graph represents three independent experiments.
# Cell lines and reagents. Human acute myeloid leukemia cell lines MOLM-14 (Matsuo Y et al, Leukemia 1997) (kindly provided by Martin Carroll, University of Pennsylvania, Philadelphia, Pa., USA) MV4-11, K562 (ACC-102 and ACC-10, DSMZ, Braunschweig, Germany) and FLT3-ITD-expressing murine BaF3 cells were cultured in RPMI 1640 medium (Gibco, Life Technologies, Carlsbad, Calif., USA) supplemented with 10% fetal bovine serum (Sigma, Saint Louis, Calif., USA). TF-1 (ATCC-CRL2003) cells were cultured in RPMI 1640 medium with 10% fetal bovine serum and GM-CSF 2 ng/ml. Concerning MOLM-14 cell line, the presence of a monoallelic 21 bp FLT3-ITD mutation and of an MLL-containing ins(11; 9)(q23;p22p23) were verified (Hematology laboratory of Toulouse University Hospital, Prof E. Delabesse and Dr I. Luquet). KG1 and HL-60 (ACC-14 and ACC-3, DSMZ) cell lines were grown in Iscove's Modified Dulbecco's Medium (IMDM, Gibco) plus 20% FBS. All cells were grown in the presence of 100 units/ml of penicillin and streptomycin (Invitrogen) at 37° C. and 5% CO2.
# Cdc25A, sequence (P30304 whole entry): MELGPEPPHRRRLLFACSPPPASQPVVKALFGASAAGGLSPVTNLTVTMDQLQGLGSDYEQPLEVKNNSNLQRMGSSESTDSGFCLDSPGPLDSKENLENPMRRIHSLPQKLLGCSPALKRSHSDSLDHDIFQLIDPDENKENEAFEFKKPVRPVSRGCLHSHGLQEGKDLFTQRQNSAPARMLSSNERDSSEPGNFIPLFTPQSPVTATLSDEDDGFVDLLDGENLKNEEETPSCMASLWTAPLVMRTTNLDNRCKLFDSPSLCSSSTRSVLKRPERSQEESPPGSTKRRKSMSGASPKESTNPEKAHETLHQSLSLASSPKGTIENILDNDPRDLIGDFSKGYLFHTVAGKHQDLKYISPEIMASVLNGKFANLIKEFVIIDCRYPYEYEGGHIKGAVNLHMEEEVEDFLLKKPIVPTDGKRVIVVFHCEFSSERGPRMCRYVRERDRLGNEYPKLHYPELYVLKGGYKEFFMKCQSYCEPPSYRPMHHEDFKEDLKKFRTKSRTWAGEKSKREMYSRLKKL
smiles,measurement,setting,value
Cc1nc2c(s1)C(=O)C=C(NCCCN(C)CCCNC1=CC(=O)c3nc(-c4cc(F)ccc4F)oc3C1=O)C2=O [IRC-083864],growth of HCT-116 tumor spheroids,HCT-116 tumor spheroids,inhibits the growth
same,apparent toxicity,[1],No sign of apparent toxicity
same,IC50 Cdc25 enzyme type A,Cdc25A,nanomolar range
same,clonogenic potential of FLT3-ITD positive primary cells,[2],significantly reduced
same,potency of tumor cell proliferation inhibition,[3],equivalent to that of BN82685
same,expression of CD14,"[4]; 100 nM, 6 days",increased
same,morphology of primary cells,[4]; days 6 and 9,monocytic-like morphological nuclear changes
same,proliferation of HL-60,[5]; 200 nM,did not decrease
same,proliferation of HL60 upon stimulation by FLT3 ligand,[5]; FLT3 ligand stimulation,had no effect
